This is an account of results in paper PMC5218480 (PLoS ONE, 2017).

The test concerns MV-4-11 cells. Nature of the test: Gene expression microarray analysis (Affymetrix PrimeView) and GSEA. Also on record: RFU PODN (11730768_x_at) / Fold change /veh PODN (11730768_x_at) / RFU LINC00158 (11744669_a_at) / Fold change /veh LINC00158 (11744669_a_at) / RFU DUSP10 (11751237_a_at) / Fold change /veh DUSP10 (11751237_a_at) / RFU ID3 (11757404_x_at) / Fold change /veh ID3 (11757404_x_at) / RFU PLEKHG5 (11737974_s_at) / Fold change /veh PLEKHG5 (11737974_s_at) / RFU LRRC4B (11730491_at) / Fold change /veh LRRC4B (11730491_at) / RFU GIMAP4 (11747438_a_at) / Fold change /veh GIMAP4 (11747438_a_at) / RFU KRT8 (11758183_x_at) / Fold change /veh KRT8 (11758183_x_at) / RFU CNN1 (11734310_a_at) / Fold change /veh CNN1 (11734310_a_at) / RFU VPS37D (11726825_at) / Fold change /veh VPS37D (11726825_at) / RFU C10orf10 (11716522_x_at) / Fold change /veh C10orf10 (11716522_x_at) / RFU KIR2DL2 /// KIR2DL4 /// KIR2DL5A /// KIR2DL5B /// KIR2DS1 /// KIR2DS2 /// KIR2DS3 /// KIR2DS4 /// KIR3DL3 /// KIR3DL3 /// KIR3DS1 (11738374_at) / Fold change /veh KIR2DL2 /// KIR2DL4 /// KIR2DL5A /// KIR2DL5B /// KIR2DS1 /// KIR2DS2 /// KIR2DS3 /// KIR2DS4 /// KIR3DL3 /// KIR3DL3 /// KIR3DS1 (11738374_at) / RFU C1QL1 (11718748_at) / Fold change /veh C1QL1 (11718748_at) / RFU TMPRSS4 (11747572_a_at) / Fold change /veh TMPRSS4 (11747572_a_at) / RFU HAMP (11756126_x_at) / Fold change /veh HAMP (11756126_x_at) / RFU RNFT2 (11725882_a_at) / Fold change /veh RNFT2 (11725882_a_at) / RFU NR4A2 (11747474_a_at) / Fold change /veh NR4A2 (11747474_a_at) / RFU ABCC12 (11746883_a_at) / Fold change /veh ABCC12 (11746883_a_at) / RFU TMEM136 (11760407_x_at) / Fold change /veh TMEM136 (11760407_x_at) / RFU CLDN22 /// WWC2 (11732394_at) / Fold change /veh CLDN22 /// WWC2 (11732394_at) / RFU HLA-DPB1 (11760878_x_at) / Fold change /veh HLA-DPB1 (11760878_x_at) / RFU SPINT1 (11716480_a_at) / Fold change /veh SPINT1 (11716480_a_at) / RFU GAP43 (11754022_s_at) / Fold change /veh GAP43 (11754022_s_at) / RFU A4GNT (11735810_at) / Fold change /veh A4GNT (11735810_at) / RFU PRB3 (11715151_x_at) / Fold change /veh PRB3 (11715151_x_at) / RFU TUBB4B (11761932_at) / Fold change /veh TUBB4B (11761932_at) / RFU CAPN14 (11732068_a_at) / Fold change /veh CAPN14 (11732068_a_at) / RFU TMCC2 (11721928_a_at) / Fold change /veh TMCC2 (11721928_a_at) / RFU IRGQ (11745062_a_at) / Fold change /veh IRGQ (11745062_a_at) / RFU FAM174B (11720279_a_at) / Fold change /veh FAM174B (11720279_a_at) / RFU TMPRSS4 (11748680_a_at) / Fold change /veh TMPRSS4 (11748680_a_at) / RFU FAM212B (11763350_a_at) / Fold change /veh FAM212B (11763350_a_at) / RFU PLEKHG5 (11743358_a_at) / Fold change /veh PLEKHG5 (11743358_a_at) / RFU ZSCAN30 (11745921_a_at) / Fold change /veh ZSCAN30 (11745921_a_at) / RFU CMKLR1 (11741424_a_at) / Fold change /veh CMKLR1 (11741424_a_at) / RFU LOC101060620 /// MAPK8IP1 (11723275_at) / Fold change /veh LOC101060620 /// MAPK8IP1 (11723275_at) / RFU SPTSSB (11747773_x_at) / Fold change /veh SPTSSB (11747773_x_at) / RFU PRSS12 (11739890_at) / Fold change /veh PRSS12 (11739890_at) / RFU BIN1 (11741810_x_at) / Fold change /veh BIN1 (11741810_x_at) / RFU WNT11 (11732464_a_at) / Fold change /veh WNT11 (11732464_a_at) / RFU C10orf10 (11716521_a_at) / Fold change /veh C10orf10 (11716521_a_at) / RFU C5orf56 (11738089_at) / Fold change /veh C5orf56 (11738089_at) / RFU CYB561 (11721691_x_at) / Fold change /veh CYB561 (11721691_x_at) / RFU ANKRD19P (11752326_a_at) / Fold change /veh ANKRD19P (11752326_a_at) / RFU OR2T12 /// OR2T33 /// OR2T8 (11738714_s_at) / Fold change /veh OR2T12 /// OR2T33 /// OR2T8 (11738714_s_at) / RFU VCAN (11748164_a_at) / Fold change /veh VCAN (11748164_a_at) / RFU JSRP1 (11732532_at) / Fold change /veh JSRP1 (11732532_at) / RFU KRTAP10-11 (11738290_x_at) / Fold change /veh KRTAP10-11 (11738290_x_at) / RFU MYO3A (11730013_a_at) / Fold change /veh MYO3A (11730013_a_at) / RFU EBF3 (11725865_a_at) / Fold change /veh EBF3 (11725865_a_at) / RFU CAMK2N1 (11719241_x_at) / Fold change /veh CAMK2N1 (11719241_x_at) / RFU C5orf56 (11738088_a_at) / Fold change /veh C5orf56 (11738088_a_at) / RFU OLFML3 (11715873_a_at) / Fold change /veh OLFML3 (11715873_a_at) / RFU LOC100653217 /// NTM (11731650_a_at) / Fold change /veh LOC100653217 /// NTM (11731650_a_at) / RFU MAPK11 (11762145_a_at) / Fold change /veh MAPK11 (11762145_a_at) / RFU FIZ1 (11724087_x_at) / Fold change /veh FIZ1 (11724087_x_at) / RFU OASL (11726364_x_at) / Fold change /veh OASL (11726364_x_at) / RFU SOX15 (11748057_x_at) / Fold change /veh SOX15 (11748057_x_at) / RFU CD79A (11719716_a_at) / Fold change /veh CD79A (11719716_a_at) / RFU HIST1H1D (11736915_at) / Fold change /veh HIST1H1D (11736915_at) / RFU CASKIN2 (11723855_a_at) / Fold change /veh CASKIN2 (11723855_a_at) / RFU LOC730098 (11760151_x_at) / Fold change /veh LOC730098 (11760151_x_at) / RFU OR4N2 (11742367_at) / Fold change /veh OR4N2 (11742367_at) / RFU PRRT2 (11749266_a_at) / Fold change /veh PRRT2 (11749266_a_at) / RFU SNX32 (11753110_a_at) / Fold change /veh SNX32 (11753110_a_at) / RFU CDHR5 (11726645_a_at) / Fold change /veh CDHR5 (11726645_a_at) / RFU RCAN1 (11760418_a_at) / Fold change /veh RCAN1 (11760418_a_at) / RFU FAM167A (11723789_a_at) / Fold change /veh FAM167A (11723789_a_at) / RFU FAM26E (11764081_at) / Fold change /veh FAM26E (11764081_at) / RFU ISYNA1 (11749810_s_at) / Fold change /veh ISYNA1 (11749810_s_at) / RFU ACY1 (11761880_at) / Fold change /veh ACY1 (11761880_at) / RFU 11764098_at / Fold change /veh 11764098_at / RFU SAMD14 (11745864_x_at) / Fold change /veh SAMD14 (11745864_x_at) / RFU NPB (11741838_a_at) / Fold change /veh NPB (11741838_a_at) / RFU TMPRSS6 (11731388_a_at) / Fold change /veh TMPRSS6 (11731388_a_at) / RFU KRTAP10-2 (11738614_at) / Fold change /veh KRTAP10-2 (11738614_at) / RFU ARHGAP8 /// PRR5-ARHGAP8 (11727945_x_at) / Fold change /veh ARHGAP8 /// PRR5-ARHGAP8 (11727945_x_at) / RFU KRTAP5-7 /// NADSYN1 (11734609_at) / Fold change /veh KRTAP5-7 /// NADSYN1 (11734609_at) / RFU RASL12 (11751679_a_at) / Fold change /veh RASL12 (11751679_a_at) / RFU CDKN2B (11736163_a_at) / Fold change /veh CDKN2B (11736163_a_at) / RFU PRF1 (11729649_at) / Fold change /veh PRF1 (11729649_at) / RFU, ZNF638 /// ZNF638-IT1 / Fold change vs veh, ZNF638 /// ZNF638-IT1 / RFU, PANK3 / Fold change vs veh, PANK3 / RFU, SH3YL1 / Fold change vs veh, SH3YL1 / RFU, ZEB2 / Fold change vs veh, ZEB2 / RFU, NRIP1 / Fold change vs veh, NRIP1 / RFU, PTTG1IP / Fold change vs veh, PTTG1IP / RFU, CAPN2 / Fold change vs veh, CAPN2 / RFU, MED14 / Fold change vs veh, MED14 / RFU, SNORA58 / Fold change vs veh, SNORA58 / RFU, C1orf63 / Fold change vs veh, C1orf63 / RFU, LRRFIP1 / Fold change vs veh, LRRFIP1 / RFU, NDUFAF7 / Fold change vs veh, NDUFAF7 / RFU, SLC12A2 / Fold change vs veh, SLC12A2 / RFU, IBTK / Fold change vs veh, IBTK / RFU, ESF1 / Fold change vs veh, ESF1 / Fold change vs veh, TMEM50B / RFU, TAOK1 / Fold change vs veh, TAOK1 / RFU, ACBD3 / Fold change vs veh, ACBD3 / RFU, TMA16 / Fold change vs veh, TMA16 / RFU, RWDD3 / Fold change vs veh, RWDD3 / RFU, BCAT1 / Fold change vs veh, BCAT1 / RFU, EDEM3 / Fold change vs veh, EDEM3 / RFU, TMEM33 / Fold change vs veh, TMEM33 / RFU, WDR75 / Fold change vs veh, WDR75 / RFU, AHCTF1 / Fold change vs veh, AHCTF1 / RFU, TFRC / Fold change vs veh, TFRC / RFU, ZDHHC17 / Fold change vs veh, ZDHHC17 / RFU, NOM1 / Fold change vs veh, NOM1 / RFU, ARL8B / Fold change vs veh, ARL8B / RFU, ZBTB11 / Fold change vs veh, ZBTB11 / RFU, TAMM41 / Fold change vs veh, TAMM41 / RFU, KIAA1704 /// LOC100996395 / Fold change vs veh, KIAA1704 /// LOC100996395 / RFU, ING1 / Fold change vs veh, ING1 / RFU, TRMT61B / Fold change vs veh, TRMT61B / RFU, FUBP3 / Fold change vs veh, FUBP3 / RFU, TP53 / Fold change vs veh, TP53 / RFU, TNKS2 / Fold change vs veh, TNKS2 / RFU, ZFP14 / Fold change vs veh, ZFP14 / RFU, ACTR2 / Fold change vs veh, ACTR2 / RFU, PPP3R1 / Fold change vs veh, PPP3R1 / RFU, PIK3R1 / Fold change vs veh, PIK3R1 / RFU, HNRNPA1 / Fold change vs veh, HNRNPA1 / RFU, RNF170 / Fold change vs veh, RNF170 / RFU, ZNF28 / Fold change vs veh, ZNF28 / RFU, RNGTT / Fold change vs veh, RNGTT / RFU, OGT / Fold change vs veh, OGT / RFU, BRD1 / Fold change vs veh, BRD1 / RFU, MARS / Fold change vs veh, MARS / RFU, ZNF655 / Fold change vs veh, ZNF655 / RFU, FAHD1 / Fold change vs veh, FAHD1 / RFU, BDP1 / Fold change vs veh, BDP1 / RFU, LRRCC1 / Fold change vs veh, LRRCC1 / RFU, ARID1A / Fold change vs veh, ARID1A / RFU, ZNF146 / Fold change vs veh, ZNF146 / RFU, ZNF330 / Fold change vs veh, ZNF330 / RFU, GPN3 / Fold change vs veh, GPN3 / RFU, C9orf123 / Fold change vs veh, C9orf123 / RFU, N4BP2L2 / Fold change vs veh, N4BP2L2 / RFU, ARFIP1 / Fold change vs veh, ARFIP1 / RFU, FAM179B / Fold change vs veh, FAM179B / RFU, BCL10 / Fold change vs veh, BCL10 / RFU, UHRF1BP1L / Fold change vs veh, UHRF1BP1L / RFU, BET1 / Fold change vs veh, BET1 / RFU, CNOT2 / Fold change vs veh, CNOT2 / RFU, ZNF268 / Fold change vs veh, ZNF268 / Fold change vs veh, ZNF507 / RFU, DGCR2 / Fold change vs veh, DGCR2 / RFU, WDSUB1 / Fold change vs veh, WDSUB1 / Fold change vs veh, HSP90B1 /// MIR3652 / RFU, ADSS / Fold change vs veh, ADSS / RFU, GK / Fold change vs veh, GK / RFU, ZNF148 / Fold change vs veh, ZNF148 / RFU, TAF9 / Fold change vs veh, TAF9 / RFU, SLC1A5 / Fold change vs veh, SLC1A5 / RFU, SLMO2 / Fold change vs veh, SLMO2 / RFU, ABCC4 / Fold change vs veh, ABCC4 / RFU, LOC101060439 /// RAP1B / Fold change vs veh, LOC101060439 /// RAP1B / RFU, RFX7 / Fold change vs veh, RFX7 / RFU, GTPBP10 / Fold change vs veh, GTPBP10 / RFU, CNEP1R1 / Fold change vs veh, CNEP1R1 / RFU, BIVM-ERCC5 /// ERCC5 / Fold change vs veh, BIVM-ERCC5 /// ERCC5 / RFU, ILF3 / Fold change vs veh, ILF3 / RFU 11762660_at / Fold change /veh 11762660_at / RFU VCAN (11757783_s_at) / Fold change /veh VCAN (11757783_s_at) / RFU DDX43 (11728927_at) / Fold change /veh DDX43 (11728927_at) / RFU KRT8 (11758188_x_at) / Fold change /veh KRT8 (11758188_x_at) / RFU NKD1 (11759106_at) / Fold change /veh NKD1 (11759106_at) / RFU SRD5A1 (11742802_a_at) / Fold change /veh SRD5A1 (11742802_a_at) / RFU TPSAB1 /// TPSB2 (11721975_s_at) / Fold change /veh TPSAB1 /// TPSB2 (11721975_s_at) / RFU GSTM3 (11746129_a_at) / Fold change /veh GSTM3 (11746129_a_at) / RFU IL23R (11737362_x_at) / Fold change /veh IL23R (11737362_x_at) / RFU TMEM51 (11727254_a_at) / Fold change /veh TMEM51 (11727254_a_at) / RFU PIWIL2 (11732686_x_at) / Fold change /veh PIWIL2 (11732686_x_at) / RFU ORM1 (11744905_x_at) / Fold change /veh ORM1 (11744905_x_at) / RFU CCDC152 (11743942_at) / Fold change /veh CCDC152 (11743942_at) / RFU ECM1 (11717891_a_at) / Fold change /veh ECM1 (11717891_a_at) / RFU IL23R (11748794_a_at) / Fold change /veh IL23R (11748794_a_at) / RFU TNFAIP8L3 (11732012_x_at) / Fold change /veh TNFAIP8L3 (11732012_x_at) / RFU MBOAT4 (11741988_at) / Fold change /veh MBOAT4 (11741988_at) / RFU 11764193_at / Fold change /veh 11764193_at / RFU TMEM53 (11763286_at) / Fold change /veh TMEM53 (11763286_at) / RFU MAGEB2 (11727129_at) / Fold change /veh MAGEB2 (11727129_at) / RFU TMEM200A (11744735_a_at) / Fold change /veh TMEM200A (11744735_a_at) / RFU CCDC152 (11751479_a_at) / Fold change /veh CCDC152 (11751479_a_at) / RFU FAM211A (11726209_a_at) / Fold change /veh FAM211A (11726209_a_at) / RFU RGS16 (11746705_a_at) / Fold change /veh RGS16 (11746705_a_at) / RFU VCAN (11755009_s_at) / Fold change /veh VCAN (11755009_s_at) / RFU RHOB (11743442_s_at) / Fold change /veh RHOB (11743442_s_at) / RFU RGS16 (11720943_a_at) / Fold change /veh RGS16 (11720943_a_at) / RFU RGS16 (11720944_at) / Fold change /veh RGS16 (11720944_at) / RFU, VPS4B / Fold change vs veh, VPS4B / RFU, CREB1 / Fold change vs veh, CREB1 / RFU, DNAJC13 / Fold change vs veh, DNAJC13 / RFU, GNAQ / Fold change vs veh, GNAQ / RFU, CDK5R1 / Fold change vs veh, CDK5R1 / RFU, ZRANB3 / Fold change vs veh, ZRANB3 / RFU, CUL4A / Fold change vs veh, CUL4A / RFU, CCNY / Fold change vs veh, CCNY / RFU, UFL1 / Fold change vs veh, UFL1 / RFU, COG3 / Fold change vs veh, COG3 / RFU, DIAPH2 / Fold change vs veh, DIAPH2 / RFU, SKA2 / Fold change vs veh, SKA2 / RFU, AFF3 / Fold change vs veh, AFF3 / RFU, LMF1 / Fold change vs veh, LMF1 / RFU, IPO11 / Fold change vs veh, IPO11 / RFU, DFFB / Fold change vs veh, DFFB / RFU, FOXP1 / Fold change vs veh, FOXP1 / RFU, CARD8 / Fold change vs veh, CARD8 / RFU, STRN3 / Fold change vs veh, STRN3 / RFU, ADK / Fold change vs veh, ADK / RFU, RASSF2 / Fold change vs veh, RASSF2 / RFU, WIPF1 / Fold change vs veh, WIPF1 / RFU, LARP1B / Fold change vs veh, LARP1B / RFU, RASA1 / Fold change vs veh, RASA1 / RFU, RB1 / Fold change vs veh, RB1 / RFU, PPFIA1 / Fold change vs veh, PPFIA1 / RFU, MAT2A / Fold change vs veh, MAT2A / RFU, CCT5 / Fold change vs veh, CCT5 / RFU, WDR92 / Fold change vs veh, WDR92 / RFU, CUX1 / Fold change vs veh, CUX1 / RFU, TTC7A / Fold change vs veh, TTC7A / RFU, TMEM135 / Fold change vs veh, TMEM135 / RFU, DEPTOR / Fold change vs veh, DEPTOR / RFU, CPM / Fold change vs veh, CPM / RFU, DNAJB6 / Fold change vs veh, DNAJB6 / RFU, CACNA2D3 / Fold change vs veh, CACNA2D3 / RFU, DTX4 / Fold change vs veh, DTX4 / RFU, TFCP2 / Fold change vs veh, TFCP2 / RFU, GMCL1 /// GMCL1P1 / Fold change vs veh, GMCL1 /// GMCL1P1 / RFU, AEBP2 / Fold change vs veh, AEBP2 / RFU, SNHG1 /// SNORD22 /// SNORD25 /// SNORD26 /// SNORD27 /// SNORD28 /// SNORD29 /// SNORD31 / Fold change vs veh, SNHG1 /// SNORD22 /// SNORD25 /// SNORD26 /// SNORD27 /// SNORD28 /// SNORD29 /// SNORD31 / Fold change (Aza/veh), C12orf56 (ProbeSet 11735607_a_at) / Fold change (ACY-1035/veh), C12orf56 (ProbeSet 11735607_a_at) / Fold change (Aza/veh), FGFR1OP (ProbeSet 11751329_s_at) / Fold change (ACY-1035/veh), FGFR1OP (ProbeSet 11751329_s_at) / Fold change (Aza/veh), VPS36 (ProbeSet 11739960_a_at) / Fold change (ACY-1035/veh), VPS36 (ProbeSet 11739960_a_at) / RFU SYPL1 (11715823_x_at) / Fold change /veh SYPL1 (11715823_x_at) / RFU IGFBP7 (11715501_s_at) / Fold change /veh IGFBP7 (11715501_s_at) / RFU REEP3 (11722064_at) / Fold change /veh REEP3 (11722064_at) / RFU IGLL1 (11728026_x_at) / Fold change /veh IGLL1 (11728026_x_at): dose or concentration left out as unconfirmed. The settings on record: MV-4-11 cells, 48 hours. The test is classed as cell-based, human.

SMILES strings stand for the structures.

As to `Nc1ncn([C@@H]2O[C@H](CO)[C@@H](O)[C@H]2O)c(=O)n1` [azacitidine], the “Fold change /veh RGS16 (11746705_a_at)” value is listed as 1.56.
